Activity calls are given as the source filed them. The calls are words filed in the database; no cut-off is given here.
What was measured:
Homo sapiens [1] = species: Homo sapiens; experiment: Inhibition of P-gp (unknown origin) expressed in mouse NIH/3T3 cells assessed as reduction in rhodamine 123 efflux at 1 uM incubated for 30 mins by flow cytometric analysis relative to control; format: cell-based
BHK-21 [2] = experiment: Cytotoxicity against wild type BHK21 cells assessed as reduction in cell viability at 20 uM after 72 hrs by MTT assay; format: cell-based, Mesocricetus auratus; settings: hamster, bhk-21, 72 h
NIH3T3 [3] = experiment: Cytotoxicity against mouse NIH/3T3 cells assessed as reduction in cell viability at 20 uM after 72 hrs by MTT assay; format: cell-based; settings: nih3t3, 72 h
Homo sapiens [4] = species: Homo sapiens; experiment: Inhibition of P-gp (unknown origin) expressed in mouse NIH/3T3 cells assessed as reduction in rhodamine 123 efflux at 10 uM incubated for 30 mins by flow cytometric analysis relative to control; format: cell-based
BHK-21 [5] = experiment: Cytotoxicity against MRP1-expressing BHK21 cells assessed as growth inhibition at 20 uM after 72 hrs by MTT assay; format: functional; settings: Mesocricetus auratus; for inhibition of growth at 20 µM: BHK-21, 72 h, read-out: GI
BCRP (ABCG2) = target: T1, BCRP (ABCG2) (Homo sapiens, UniProt Q9UNQ0); experiment: Inhibition of BCRP (unknown origin) expressed in HEK293 cells assessed as reduction in mitoxantrone efflux at 20 uM incubated for 30 mins by flow cytometric analysis relative to control; format: cell-based; settings: HEK293 cells expressing BCRP, probe mitoxantrone
T1 sequence (Q9UNQ0 whole entry): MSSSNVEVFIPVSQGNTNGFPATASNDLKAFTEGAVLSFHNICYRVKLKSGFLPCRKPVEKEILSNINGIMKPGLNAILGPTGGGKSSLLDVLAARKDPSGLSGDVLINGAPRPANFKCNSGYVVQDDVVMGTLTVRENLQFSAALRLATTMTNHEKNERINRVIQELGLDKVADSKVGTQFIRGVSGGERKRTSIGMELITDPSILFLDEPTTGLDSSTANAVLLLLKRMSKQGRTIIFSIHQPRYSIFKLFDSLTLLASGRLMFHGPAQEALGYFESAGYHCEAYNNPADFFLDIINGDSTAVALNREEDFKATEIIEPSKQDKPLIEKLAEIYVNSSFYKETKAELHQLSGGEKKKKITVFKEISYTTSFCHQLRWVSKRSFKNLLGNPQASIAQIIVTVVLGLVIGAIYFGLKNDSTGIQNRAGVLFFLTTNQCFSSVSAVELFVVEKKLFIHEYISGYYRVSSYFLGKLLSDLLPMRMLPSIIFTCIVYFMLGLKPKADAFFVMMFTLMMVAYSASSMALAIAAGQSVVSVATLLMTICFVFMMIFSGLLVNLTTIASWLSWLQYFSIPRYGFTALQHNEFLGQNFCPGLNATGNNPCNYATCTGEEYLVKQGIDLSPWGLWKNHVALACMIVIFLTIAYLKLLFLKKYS

MRP1 = MRP1 (Homo sapiens, UniProt P33527); experiment: Inhibition of MRP1 (unknown origin) expressed in HEK293FlpIN cells assessed as reduction in calcein-AM efflux at 20 uM incubated for 30 mins by flow cytometric analysis relative to control; format: cell-based; settings: HEK293FlpIN cells expressing MRP1, probe calcein-AM
NIH3T3 [6] = experiment: Cytotoxicity against MDR1-expressing mouse NIH/3T3 cells assessed as growth inhibition at 20 uM after 72 hrs by MTT assay; format: functional, cell-based
[7] = Inhibition of P-gp (unknown origin) expressed in mouse NIH/3T3 cells assessed as reduction in rhodamine 123 efflux at 20 uM incubated for 30 mins by flow cytometric analysis relative to control; format: cell-based; settings: Homo sapiens
Homo sapiens [8] = species: Homo sapiens; settings: 5 uM
Description: Inhibition of P-gp (unknown origin) expressed in mouse NIH/3T3 cells assessed as reduction in rhodamine 123 efflux at 5 uM incubated for 30 mins by flow cytometric analysis relative to control

Homo sapiens [9] = species: Homo sapiens; experiment: Inhibition of P-gp (unknown origin) expressed in mouse NIH/3T3 cells assessed as potentiation of paclitaxel-induced cytotoxicity by measuring decrease in cell viability at 10 to 20 uM after 72 hrs by MTT assay; format: cell-based
Homo sapiens [10] = species: Homo sapiens; experiment: Inhibition of P-gp (unknown origin) expressed in mouse NIH/3T3 cells assessed as potentiation of paclitaxel-induced cytotoxicity by measuring decrease in cell viability at 10 uM after 72 hrs by MTT assay; format: cell-based
[11] = target: T2, Multidrug resistance-associated protein 1 (Homo sapiens, UniProt P33527); experiment: Inhibition of MRP1 (unknown origin) expressed in BHK21 cells assessed as GSH efflux at 20 uM incubated for 3 hrs measured every 30 secs for 2 mins by GSH reductase enzyme based assay (reference value: 100%); format: cell-based; settings: 3 h, 20 µM
[12] = Cytotoxicity against HEK293FlpIN cells assessed as reduction in cell viability at 10 to 20 uM after 72 hrs by MTT assay; format: cell-based; settings: human
[13] = target: T2, Multidrug resistance-associated protein 1; experiment: Inhibition of MRP1 (unknown origin) expressed in HEK293FlpIN cells assessed as reduction in calcein-AM efflux incubated for 30 mins by flow cytometric analysis; format: cell-based
Homo sapiens [14] = species: Homo sapiens; experiment: Cytotoxicity against MRP1-expressing HEK293FlpIN cells assessed as reduction in cell viability at 10 to 20 uM after 72 hrs by MTT assay; format: functional, cell-based
[15] = target: T2, Multidrug resistance-associated protein 1; experiment: Inhibition of MRP1 (unknown origin) expressed in HEK293FlpIN cells assessed as potentiation of vincristine-induced cytotoxicity by measuring decrease in cell growth at 10 to 20 uM after 72 hrs by MTT assay relative to control; format: cell-based; design: scale not given: the % may be the effect or the level left

Sequence of MRP1 (P33527 whole entry): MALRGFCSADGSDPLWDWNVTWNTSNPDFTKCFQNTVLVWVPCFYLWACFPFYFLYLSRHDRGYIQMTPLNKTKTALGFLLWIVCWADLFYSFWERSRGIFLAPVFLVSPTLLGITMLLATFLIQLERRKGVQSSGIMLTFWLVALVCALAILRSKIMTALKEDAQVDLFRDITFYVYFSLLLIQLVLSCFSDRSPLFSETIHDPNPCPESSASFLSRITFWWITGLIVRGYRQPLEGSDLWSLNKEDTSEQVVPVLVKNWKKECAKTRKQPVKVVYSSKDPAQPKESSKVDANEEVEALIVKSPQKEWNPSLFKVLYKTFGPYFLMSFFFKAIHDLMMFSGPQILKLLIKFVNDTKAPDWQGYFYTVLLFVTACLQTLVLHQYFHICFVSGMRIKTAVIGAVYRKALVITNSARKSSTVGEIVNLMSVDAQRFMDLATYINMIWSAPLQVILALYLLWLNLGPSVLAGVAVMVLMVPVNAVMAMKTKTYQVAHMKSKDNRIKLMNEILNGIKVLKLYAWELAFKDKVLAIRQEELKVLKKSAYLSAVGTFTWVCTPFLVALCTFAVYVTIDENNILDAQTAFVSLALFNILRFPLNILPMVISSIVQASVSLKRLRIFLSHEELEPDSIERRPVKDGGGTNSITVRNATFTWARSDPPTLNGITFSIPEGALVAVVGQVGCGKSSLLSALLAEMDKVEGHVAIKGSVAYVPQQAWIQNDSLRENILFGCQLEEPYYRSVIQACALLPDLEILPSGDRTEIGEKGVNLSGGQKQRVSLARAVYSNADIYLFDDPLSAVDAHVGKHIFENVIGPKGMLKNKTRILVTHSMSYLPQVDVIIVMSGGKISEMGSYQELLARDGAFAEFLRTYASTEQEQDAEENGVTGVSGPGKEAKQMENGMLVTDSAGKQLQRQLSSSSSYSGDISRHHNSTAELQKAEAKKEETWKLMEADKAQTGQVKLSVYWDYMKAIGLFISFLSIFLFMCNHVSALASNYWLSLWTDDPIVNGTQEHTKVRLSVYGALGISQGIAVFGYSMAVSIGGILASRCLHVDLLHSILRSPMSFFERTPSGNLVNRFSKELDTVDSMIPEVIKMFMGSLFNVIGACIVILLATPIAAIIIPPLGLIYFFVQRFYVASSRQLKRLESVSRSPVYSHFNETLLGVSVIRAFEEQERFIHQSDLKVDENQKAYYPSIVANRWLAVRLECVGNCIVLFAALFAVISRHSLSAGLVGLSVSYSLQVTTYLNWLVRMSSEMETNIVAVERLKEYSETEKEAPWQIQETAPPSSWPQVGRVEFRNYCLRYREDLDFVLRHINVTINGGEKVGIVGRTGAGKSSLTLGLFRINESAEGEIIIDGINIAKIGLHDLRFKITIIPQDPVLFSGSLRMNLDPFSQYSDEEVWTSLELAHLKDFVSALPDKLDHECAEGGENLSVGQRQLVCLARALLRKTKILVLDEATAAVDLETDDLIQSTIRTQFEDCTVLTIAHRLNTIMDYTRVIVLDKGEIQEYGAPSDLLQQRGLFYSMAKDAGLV
T2 sequence (P33527 whole entry): as above

**Q.** With `CC[C@@H]1CN(C)[C@H]2Cc3c([nH]c4ccccc34)/C(=N/N=C\c3c[nH]c4ccccc34)C[C@H]1[C@H]2C(=O)OC` as the molecule, how does the inhibition (Homo sapiens [1]) read?
**A.** 18%

**Q.** And the Activity (BHK-21 [2])?
**A.** Non-Toxic

**Q.** What about the Activity (NIH3T3 [3]) of the same molecule?
**A.** Non-Toxic

**Q.** What about the inhibition (Homo sapiens [4]) of the same molecule?
**A.** 70%

**Q.** What about the inhibition of growth at 20 µM (BHK-21 [5]) of the same molecule?
**A.** 90 to 98%

**Q.** And the inhibition at 0.5 h, 20 µM (BCRP (ABCG2))?
**A.** 4.2%

**Q.** What about the inhibition at 0.5 h, 20 µM (MRP1) of the same molecule?
**A.** 50.2%

**Q.** What about the “growth inhibition (GI)” value (NIH3T3 [6]) of the same molecule?
**A.** Active

**Q.** What about the inhibition [7] of the same molecule?
**A.** 102%

**Q.** Which inhibition (Homo sapiens [1]) does the source give for `CC[C@H]1CN(C)[C@H]2Cc3c([nH]c4ccccc34)/C(=N/N=C\c3c[nH]c4ccccc34)C[C@H]1[C@H]2C(=O)OC` here?
**A.** 38%

**Q.** What about the Activity (BHK-21 [2]) of the same molecule?
**A.** Non-Toxic

**Q.** And the Activity (NIH3T3 [3])?
**A.** Non-Toxic

**Q.** What about the inhibition (Homo sapiens [4]) of the same molecule?
**A.** 73%

**Q.** What about the inhibition of growth at 20 µM (BHK-21 [5]) of the same molecule?
**A.** 90 to 98%

**Q.** What about the inhibition at 0.5 h, 20 µM (BCRP (ABCG2)) of the same molecule?
**A.** 4.9%

**Q.** What about the inhibition at 0.5 h, 20 µM (MRP1) of the same molecule?
**A.** 70.5%

**Q.** And the “growth inhibition (GI)” value (NIH3T3 [6])?
**A.** Active

**Q.** What about the inhibition [7] of the same molecule?
**A.** 116%

**Q.** For `COc1cc2c(cc1OC)CN(CCc1ccc(NC(=O)c3cccc4c(=O)c5cccc(OC)c5[nH]c34)cc1)CC2`, which inhibition (Homo sapiens [8]) is on record?
**A.** 100%

**Q.** With `CC[C@H]1CN(C)[C@H]2Cc3c([nH]c4ccccc34)/C(=N/N=C\c3ccc(C)cc3)C[C@H]1[C@H]2C(=O)OC` as the molecule, how does the inhibition (Homo sapiens [9]) read?
**A.** Active

**Q.** And the Activity (BHK-21 [2])?
**A.** Non-Toxic

**Q.** And the Activity (NIH3T3 [3])?
**A.** Non-Toxic

**Q.** What about the inhibition of growth at 20 µM (BHK-21 [5]) of the same molecule?
**A.** 90 to 98%

**Q.** What about the inhibition at 0.5 h, 20 µM (BCRP (ABCG2)) of the same molecule?
**A.** 2.4%

**Q.** What about the inhibition at 0.5 h, 20 µM (MRP1) of the same molecule?
**A.** 20.4%

**Q.** What about the “growth inhibition (GI)” value (NIH3T3 [6]) of the same molecule?
**A.** Active

**Q.** And the inhibition [7]?
**A.** 86.1%

**Q.** Which inhibition (Homo sapiens [10]) does the source give for `CC[C@@H]1CN(C)[C@H]2Cc3c([nH]c4ccccc34)/C(=N/N=C\c3ccc(C)cc3)C[C@H]1[C@H]2C(=O)OC` here?
**A.** Active

**Q.** And the Activity (BHK-21 [2])?
**A.** Non-Toxic

**Q.** And the Activity (NIH3T3 [3])?
**A.** Non-Toxic

**Q.** What about the inhibition of growth at 20 µM (BHK-21 [5]) of the same molecule?
**A.** 90 to 98%

**Q.** What about the inhibition at 0.5 h, 20 µM (BCRP (ABCG2)) of the same molecule?
**A.** 1.7%

**Q.** What about the inhibition at 0.5 h, 20 µM (MRP1) of the same molecule?
**A.** 8.8%

**Q.** And the “growth inhibition (GI)” value (NIH3T3 [6])?
**A.** Active

**Q.** And the inhibition [7]?
**A.** 73.8%

**Q.** Which Activity (BHK-21 [2]) does the source give for `CC[C@@H]1CN(C)[C@H]2Cc3c([nH]c4ccccc34)/C(=N/N=C\c3ccc(O)c(OC)c3)C[C@H]1[C@H]2C(=O)OC` here?
**A.** Non-Toxic

**Q.** And the “inhibition (INH)” value [11]?
**A.** Not Active

**Q.** What about the Activity (NIH3T3 [3]) of the same molecule?
**A.** Non-Toxic

**Q.** And the “growth inhibition (GI)” value (BHK-21 [5])?
**A.** Active

**Q.** What about the inhibition at 0.5 h, 20 µM (BCRP (ABCG2)) of the same molecule?
**A.** 9%

**Q.** What about the Activity [12] of the same molecule?
**A.** Non-Toxic

**Q.** And the inhibition at 0.5 h, 20 µM (MRP1)?
**A.** 87.3%

**Q.** What about the “growth inhibition (GI)” value (NIH3T3 [6]) of the same molecule?
**A.** Active

**Q.** What about the IC50 [13] of the same molecule?
**A.** > 1000 nM

**Q.** And the “inhibition (INH)” value ([13]; human, 0.5 h)?
**A.** Dose-dependent effect

**Q.** And the inhibition (Homo sapiens [14])?
**A.** inactive

**Q.** And the Activity [15]?
**A.** 60%

**Q.** And the inhibition [7]?
**A.** 24.3%
